Reference: patent publication US9648880B2, “Antifungal agents and uses thereof” (University of Massachusetts, priority 2012, dated 2017)

Columns and labels:
Assay type in all cases: cell-based, Candida albicans
[1] = tested on: C. albicans SC5314-GFP biofilm; test: biofilm formation on silicone elastomers; settings: for dry weight of biofilm / biofilm formation, visual inspection: 50 μM, 60 hrs; for biofilm formation, visual inspection: silicone mesh
Procedure: FIGS. 5A-5C. Effect of small molecules on biofilm formation in vitro. FIG. 5A is a series of photographs showing biofilm formation on silicone elastomers. Biofilm assay was performed with SC5314-GFP and edt1^Δ/Δ-GFP and photographed after 60 hrs. Indicated compounds were added at 50 μM. Turbid medium indicates planktonic cells unattached to silicone elastomers when biofilm formation is inhibited. Clear medium with the cell attached to the silicone elastomer indicate establishment of functional biofilm. Each treatment was done in triplicate. FIG. 5B is a graph showing quantitation of turbidity of medium. Media was removed from the wells, vortexed vigorously and the OD at 600 nm was measured in a spectrophotometer. FIG. 5C is a graph showing quantitation of dry weight of biofilm. Dry weight in mg of air-dried silicone elastomers.
Fungal biofilm formation on implanted medical devices is a serious medical problem because these biofilms can lead to life-threatening systemic infections. An established in vitro assay to study device colonization makes use of silicone mesh as a surrogate surface (Nobile, 2006). We tested how the compounds that affected polystyrene adhesion (FIG. 1) would affect biofilm formation by visual inspection of the biofilms formed, by measuring the optical density of the supernatant liquid cultures, and by measuring their dry weights. […] Therefore, compounds #4 and Q1 were effective inhibitors of both hyphal morphogenesis (FIG. 4) and biofilm formation on silicone mesh (FIG. 5).
We adapted a published method (Nobile, 2006, supra). Autoclaved, pre-weighed silicone mesh squares (Bentec, Catalog Number PR72034-04N) were incubated overnight at 37° C. with undiluted bovine serum. Following washing with PBS, the squares were transferred to 12-well plates and incubated with 0.5 OD/ml SC5314-GFP cells in Spider medium (with or without drugs as indicated), for 90 min at 37° C., shaking at 200 rpm. Squares were washed in PBS and transferred to new 12-well plates containing fresh Spider medium with fresh drugs and incubated for 60 hrs in a 37° C. shaker at 200 rpm. The plates were then photographed, the liquid media were collected for A600 nm measurements, and the dry weights of the bound biofilms were measured following drying of the silicone squares in a chemical hood.

C. albicans = test: pretreatment (pre-coating) of polystyrene, then adhesion assay
Procedure: (§1) FIGS. 11A-11D. Compound #4 can coat surfaces and reduce subsequent fungal adhesion. […] is a graph showing the results of pretreatment of polystyrene with candidate compounds. Indicated compounds at 50 μM were incubated in polystyrene 96-well plates overnight. Wells were washed three times with 100 μl of PBS. C. albicans adhesion was then measured using the vital dye alamarBlue, with no additional drug treatment. FIG. 11B is a graph showing titration of compounds #1, 4 and 9 for pre-binding to polystyrene. Indicated concentrations of compounds were pre-incubated with polystyrene plates as above prior to the adhesion assays. FIG. 11C is a graph showing the inhibition of adhesion by pretreatment of C. albicans SC5314 cells with compound #4 prior to introduction to plastic. SC5314 cells were treated with 25 μM compound #4 or DMSO in liquid culture prior to their introduced into polystyrene plates. Cells were washed with PBS prior to resuspension into SCM and seeding into 96-well plates for adhesion assays using alamarBlue detection of remaining cells. The pretreated cells were assayed alongside a standard adhesion assay in which compound #4 and the cells were coincubated with the plastic simultaneously. FIG. 11D is a graph showing the results of an assay performed as in FIG. 11C, except that SC5314-GFP cells were used, and then detected via fluorescence measurement. edt1 indicates non-adherent mutant cells, PBS indicates background fluorescence in absence of cells.
Because compounds #4 and #9 contain a nitrophenyl group (FIG. 3A), solutions containing these appear yellow. […] To test this idea, we preincubated polystyrene plates with each of the compounds that affect adhesion to polystyrene, washed to remove unbound compound molecules, and then added C. albicans cells to measure adhesion without further addition of compound.
To distinguish the three pre-coating compounds, we then titrated them in this pre-coating assay (FIG. 11B). […] We also tested whether compound #4 could affect fungal adhesion when it was used to pre-coat C. albicans cells rather than the polystyrene surface. […] We conclude that compound #4 has the ability to make polystyrene and the C. albicans cell surface less amenable to subsequent adhesion.

SC5314 = test: growth rate in liquid culture; settings: 50 μM; liquid YPD, 30° C.
Procedure: FIGS. 8A-8B. Characterization of compound #4. FIG. 8A is a graphs showing the IC50 for compound #4 measured using GFP adhesion assay. Assay performed as in FIG. 1D with the indicated concentrations of compound #4. Mean and standard deviations from 4 replicate well measurements are shown. FIG. 8B is a graph showing the effect of compound #4 on growth rate of SC5314 in liquid culture. SC5314 was grown in liquid YPD in a 30° C. shaker in the presence of 1% DMSO or compounds #4, 5, 6, 7 or 8 at 50 μM and the OD600 of the culture was measured at the indicated times. Cultures were also observed in the microscope, and we confirmed that the cells retained the budding yeast morphology during the course of this experiment.
We performed several additional experiments to characterize the ability of compound #4 to inhibit Candida adhesion to polystyrene. […] Second, we tested whether compound #4 affects C. albicans cell growth rate. […] Therefore, compound #4 slows C. albicans growth but is minimally toxic to human epithelial cells (FIG. 2C), properties that are desirable for candidate antifungal compounds.
Overnight cultures of […] were diluted to 0.1 OD/ml in fresh YPD and grown in a 30° C. shaker at 200 RPM in the presence of […] of compounds or 1% DMSO. OD 600 nm was measured during the time course to evaluate growth rate.

[2] = tested on: C. albicans hyphae formation; test: filamentation assay (hyphal morphogenesis); settings: 50 μM overlay; 37° C., 2 days
C. albicans SC5314 cells = test: pretreatment of C. albicans cells, then adhesion assay; settings: 25 μM; alamarBlue or GFP detection
Procedure: as §1, with “cells. […]” for “cells. The pretreated cells were assayed alongside a standard adhesion assay in which compound #4 and the cells were coincubated with the plastic simultaneously.”, “cells. […]” for “cells.”

Row | SMILES | dry weight of biofilm [1] | biofilm formation, visual inspection [1] | subsequent adhesion of C. albicans to pre-coated polystyrene (C. albicans; 12.5 μM or below) | subsequent adhesion of C. albicans to pre-coated polystyrene (C. albicans; 25 μM) | subsequent adhesion of C. albicans to pre-coated polystyrene (C. albicans; 50 μM, overnight, washed) | C. albicans cell growth rate (doubling time) (SC5314) | wrinkled colony morphology on solid Spider media [2] | adhesion of pre-treated cells (C. albicans SC5314 cells) | biofilm formation on silicone mesh ([1]; Example 14)
1 | O=C(c1ccc(Cl)c(Cl)c1)N1CCN(c2ccc([N+](=O)[O-])cc2)CC1 [Compound 9] | most effective at reducing biofilm formation | most effectively kept the cells dispersed in the media rather than on the mesh | much less so | strongly inhibitory | efficiently inhibited subsequent adhesion | – | – | – | –
2 | Cc1ccc(C(=O)N2CCN(c3ccc([N+](=O)[O-])cc3)CC2)cc1Cl [Compound 4] | most effective at reducing biofilm formation | most effectively kept the cells dispersed in the media rather than on the mesh | much less so | strongly inhibitory | efficiently inhibited subsequent adhesion | reduced the doubling time | abolished | could reduce adhesion of pre-treated cells | effective inhibitors of both hyphal morphogenesis and biofilm formation on silicone mesh
